From patent US10647719B2, “Bicyclic compounds as dual ATX/CA inhibitors” (Hoffmann-La Roche Inc., priority 2015, dated 2020)
Read-outs that look alike come from different tables or passages of the source.

Key:
[1] = molecular target: human ATX (Homo sapiens (Human), UniProt Q13822); assay: Human ATX enzyme inhibition assay (fluorescence quenching, MR121 substrate); format: biochemical
Experimental: Human ATX Enzyme Inhibition Assay
ATX inhibition was measured by a fluorescence quenching assay using a specifically labeled substrate analogue (MR121 substrate). To obtain this MR121 substrate, BOC and TBS protected 6-amino-hexanoic acid (R)-3-({2-[3-(2-{2-[2-(2-amino-ethoxy)-ethoxy]-ethoxy}-ethoxy)-propionylamino]-ethoxy}-hydroxy-phosphoryloxy)-2-hydroxy-propyl ester (Ferguson et al., Org Lett 2006, 8 (10), 2023) was labeled with MR121 fluorophore (CAS 185308-24-1, 1-(3-carboxypropyl)-11-ethyl-1,2,3,4,8,9,10,11-octahydro-dipyrido[3,2-b:2′,3′-i]phenoxazin-13-ium) on the free amine of the ethanolamine side and then, after deprotection, subsequently with tryptophan on the side of the aminohexanoic acid.
(§1) Assay working solutions were made as follows:
Assay buffer (50 mM Tris-HCl, 140 mM NaCl, 5 mM KCl, 1 mM CaCl2, 1 mM MgCl2, 0.01% Triton-X-100, pH 8.0;
ATX solution: ATX (human His-tagged) stock solution (1.08 mg/mL in 20 mM bicine, pH 8.5, 0.15 M NaCl, 10% glycerol, 0.3% CHAPS, 0.02% NaN3), diluted to 1.4-2.5× final concentration in assay buffer;
MR121 substrate solution: MR121 substrate stock solution (800 μM MR121 substrate in DMSO), diluted to 2-5× final concentration in assay buffer.
Test compounds (10 mM stock in DMSO, 8 μL) were obtained in 384 well sample plates (Corning Costar #3655) and diluted with 8 μL DMSO. Row-wise serial dilutions were made by transferring 8 μL cpd solution to the next row up to row O. The compound and control solutions were mixed five times and 2 μL were transferred to 384 well assay plates (Corning Costar #3702). Then, 15 μL of 41.7 nM ATX solution was added (30 nM final concentration), mixed five times and then incubated for 15 minutes at 30° C. 10 μL of MR121 substrate solution was added (1 μM final concentration), mixed 30 times and then incubated for 15 minutes at 30° C.

[2] = molecular target: Human carbonic anhydrase II (hCA-II) (Homo sapiens (Human), UniProt P00918); assay: Human carbonic anhydrase-II inhibition assay (absorbance, 4-nitrophenyl acetate substrate); format: biochemical
Experimental: Human Carbonic Anhydrase-II Inhibition Assay
Human carbonic anhydrase II (hCA-II) inhibition was measured by an absorbance method using 4-nitrophenyl acetate (4-NPA) as its substrate. 4-NPA can be catalyzed by active hCA II via a zinc-hydroxide mechanism. The nitrophenolate in the products can be ionized to generate a bright yellow anion with high absorbance at 348 to 400 nm, as reported in the literature (Armstrong et al., J. Biol. Chem. 1966, 241, 5137-5149). OD340 nm was chosen for detecting hCA II substrate conversion.
as §1
Assay buffer: 50 mM MOPS, 33 mM Na2SO4, 1 mM EDTA, 0.5 mg/ml BSA, pH 7.5;
Enzyme solution: hCA-II (human, full length) stock solution (1.0 mg/mL in 20 mM HEPES, 50 mM NaCl, pH 7.4), diluted to 2133× final concentration in assay buffer;
4-NPA substrate solution: 4-NPA substrate stock solution (250 mM in DMSO, stored at −20° C.), diluted to 50× final concentration in deionized water.
Test compounds (10 mM stock in DMSO, 100 μL) were obtained in […] sample plates (Corning Costar #3655) and diluted to 0.5 mM. Column-wise serial dilutions were made by transferring 20 μL compound solutions to the next column, from column 3 up to 22. After this, 1.2 μL were transferred to 384 well assay plates (Corning Costar #3701). Then 30 μL of 16 nM hCA II solution was added (8 nM final concentration), mixed five times. 30 μL of 4-NPA substrate solution was added (2.5 mM final concentration), mixed five times. Absorbance at 340 nm was then measured immediately as time zero. The assay plates were incubated at room temperature for 1 hour and then measured as time 1 hour (Perkin Elmer EnVision 2103; Filter: Photometric 340; Light intensity 60%; Number of flashes: 10). IC50 values and Ki values were calculated from these readouts.

[3] = human His-tagged ATX 30 nM, MR121 substrate 1 μM, 30° C., read-out: ATX IC50
[4] = hCA II 8 nM, 4-NPA 2.5 mM, absorbance 340 nm, room temperature 1 hour, read-out: CA-II IC50

SMILES | IC50 [1, 3] | IC50 [2, 4] | IC50 [1] | IC50 [2]
CC(C)(C)C(=O)Nc1cc(C(F)(F)F)cnc1COC(=O)N1CC2=C(C1)CN(C(=O)c1cc(F)c(S(N)(=O)=O)cc1F)C2 [Example 1.01, [3-(2,2-dimethylpropanoylamino)-5-(trifluoromethyl)pyridin-2-yl]methyl 2-(2,5-difluoro-4-sulfamoylbenzoyl)-1,3,4,6-tetrahydropyrrolo[3,4-c]pyrrole-5-carboxylate] | 10 nM | 7 nM |  | 
CC(C)(C)C(=O)Nc1cc(Cl)c(Cl)nc1COC(=O)N1CC2=C(C1)CN(C(=O)c1ccc(S(N)(=O)=O)c(F)c1F)C2 [Example 1.30, [5,6-dichloro-3-(2,2-dimethylpropanoylamino)pyridin-2-yl]methyl 2-(2,3-difluoro-4-sulfamoylbenzoyl)-1,3,4,6-tetrahydropyrrolo[3,4-c]pyrrole-5-carboxylate] |  |  | 10 nM | 4.2 nM
CC(C)(C)C(=O)Nc1ccc(Cl)nc1COC(=O)N1CC2=C(C1)CN(C(=O)c1c(F)cc(S(N)(=O)=O)cc1F)C2 [Example 1.23, [6-chloro-3-(2,2-dimethylpropanoylamino)pyridin-2-yl]methyl 2-(2,6-difluoro-4-sulfamoylbenzoyl)-1,3,4,6-tetrahydropyrrolo[3,4-c]pyrrole-5-carboxylate] | 10 nM | 1 nM |  | 
CC(C)(C)C(=O)Nc1cc(C(F)(F)F)cnc1COC(=O)N1CC2=C(C1)CN(C(=O)c1ccc(S(N)(=O)=O)c(Cl)c1)C2 [Example 1.02, [3-(2,2-dimethylpropanoylamino)-5-(trifluoromethyl)pyridin-2-yl]methyl 2-(3-chloro-4-sulfamoylbenzoyl)-1,3,4,6-tetrahydropyrrolo[3,4-c]pyrrole-5-carboxylate] | 5 nM | 10 nM |  | 
CC(C)(C)C(=O)Nc1cccnc1COC(=O)N1CC2=C(C1)CN(C(=O)c1ccc(S(N)(=O)=O)cc1F)C2 [Example 1.19, [3-(2,2-dimethylpropanoylamino)pyridin-2-yl]methyl 2-(2-fluoro-4-sulfamoylbenzoyl)-1,3,4,6-tetrahydropyrrolo[3,4-c]pyrrole-5-carboxylate] | 10 nM | 4 nM |  | 
CC(C)(C)C(=O)Nc1cc(C#N)c(Cl)cc1COC(=O)N1CC2=C(C1)CN(C(=O)c1ccc(S(N)(=O)=O)cn1)C2 [Example 2.00, [5-Chloro-4-cyano-2-(2,2-dimethylpropanoylamino)phenyl]methyl 2-(5-sulfamoylpyridine-2-carbonyl)-1,3,4,6-tetrahydropyrrolo[3,4-c]pyrrole-5-carboxylate] |  |  | 1 nM | 24 nM
NS(=O)(=O)c1ccc(C(=O)N2CC3=C(CN(C(=O)/C=C/c4ccc(OC(F)(F)F)cc4)C3)C2)nc1 [Example 3.03, 6-[2-[(E)-3-[4-(trifluoromethoxy)phenyl]prop-2-enoyl]-1,3,4,6-tetrahydropyrrolo[3,4-c]pyrrole-5-carbonyl]pyridine-3-sulfonamide] |  |  | 4 nM | 17 nM
NS(=O)(=O)c1ccc(C(=O)N2CC3=C(CN(C(=O)CCc4ccc(OC(F)(F)F)cc4)C3)C2)nc1 [Example 3.01, 6-[2-[3-[4-(trifluoromethoxy)phenyl]propanoyl]-1,3,4,6-tetrahydropyrrolo[3,4-c]pyrrole-5-carbonyl]pyridine-3-sulfonamide] |  |  | 5 nM | 12 nM
CC(C)(C)C(=O)Nc1cc(Cl)cnc1COC(=O)N1CC2=C(C1)CN(C(=O)c1ccc(S(N)(=O)=O)c(F)c1F)C2 [Example 1.14, [5-chloro-3-(2,2-dimethylpropanoylamino)pyridin-2-yl]methyl 2-(2,3-difluoro-4-sulfamoylbenzoyl)-1,3,4,6-tetrahydropyrrolo[3,4-c]pyrrole-5-carboxylate] | 15 nM | 16.6 nM |  | 
Cc1cn(Cc2cc(C(F)(F)F)ccc2CCC(=O)N2CC3=C(C2)CN(C(=O)c2ccc(S(N)(=O)=O)cc2F)C3)nn1 [Example 3.09, 3-fluoro-4-[2-[3-[2-[(4-methyltriazol-1-yl)methyl]-4-(trifluoromethyl)phenyl]propanoyl]-1,3,4,6-tetrahydropyrrolo[3,4-c]pyrrole-5-carbonyl]benzenesulfonamide] |  |  | 1 nM | 11 nM
CC(C)(C)C(=O)Nc1cc(C(F)(F)F)cnc1COC(=O)N1CC2=C(C1)CN(S(=O)(=O)c1ccc(S(N)(=O)=O)cc1F)C2 [Example 5.00, [3-(2,2-dimethylpropanoylamino)-5-(trifluoromethyl)pyridin-2-yl]methyl 5-(2-fluoro-4-sulfamoylphenyl)sulfonyl-1,3,4,6-tetrahydropyrrolo[3,4-c]pyrrole-2-carboxylate] | 7 nM | 17.6 nM |  | 
Cc1nnn(Cc2cc(Cl)ccc2CCC(=O)N2CC3=C(C2)CN(C(=O)c2ccc(S(N)(=O)=O)cc2F)C3)n1 [Example 3.07, 4-[2-[3-[4-chloro-2-[(5-methyltetrazol-2-yl)methyl]phenyl]propanoyl]-1,3,4,6-tetrahydropyrrolo[3,4-c]pyrrole-5-carbonyl]-3-fluorobenzenesulfonamide] |  |  | 4 nM | 5 nM
CC(C)(C)C(=O)Nc1cc(C(F)(F)F)cnc1COC(=O)N1CC2=C(C1)CN(C(=O)c1ccc(S(N)(=O)=O)c(F)c1)C2 [Example 1.03, [3-(2,2-dimethylpropanoylamino)-5-(trifluoromethyl)pyridin-2-yl]methyl 2-(3-fluoro-4-sulfamoylbenzoyl)-1,3,4,6-tetrahydropyrrolo[3,4-c]pyrrole-5-carboxylate] | 5 nM | 9 nM |  | 
Cc1nnn(Cc2cc(C(F)(F)F)ccc2CCC(=O)N2CC3=C(C2)CN(C(=O)c2ncc(S(N)(=O)=O)cc2F)C3)n1 [Example 4.00, 5-fluoro-6-[2-[3-[2-[(5-methyltetrazol-2-yl)methyl]-4-(trifluoromethyl)phenyl]propanoyl]-1,3,4,6-tetrahydropyrrolo[3,4-c]pyrrole-5-carbonyl]pyridine-3-sulfonamide] | 10 nM | 3.8 nM |  | 
Cc1cnn(Cc2cc(C(F)(F)F)ccc2CCC(=O)N2CC3=C(C2)CN(C(=O)c2ccc(S(N)(=O)=O)cc2F)C3)n1 [Example 3.08, 3-fluoro-4-[2-[3-[2-[(4-methyltriazol-2-yl)methyl]-4-(trifluoromethyl)phenyl]propanoyl]-1,3,4,6-tetrahydropyrrolo[3,4-c]pyrrole-5-carbonyl]benzenesulfonamide] |  |  | 1 nM | 6 nM
NS(=O)(=O)c1ccc(C(=O)N2CC3=C(CN(C(=O)OCc4ccc(OC(F)(F)F)cc4)C3)C2)cc1 [Example 1.06, 4-(trifluoromethoxy)benzyl 5-(4-sulfamoylbenzoyl)-3,4,5,6-tetrahydropyrrolo[3,4-c]pyrrole-2(1H)-carboxylate] |  |  | 5 nM | 10 nM
Cc1nnn(Cc2cc(C#N)ccc2CCC(=O)N2CC3=C(C2)CN(C(=O)c2ccc(S(N)(=O)=O)cc2F)C3)n1 [Example 3.06, 4-[2-[3-[4-cyano-2-[(5-methyltetrazol-2-yl)methyl]phenyl]propanoyl]-1,3,4,6-tetrahydropyrrolo[3,4-c]pyrrole-5-carbonyl]-3-fluorobenzenesulfonamide] |  |  | 2 nM | 16 nM
